Source: the supplement of paper PMC10307832

What was measured:
Assay in all cases: relative viability (nuclei count vs DMSO), 5 days (fraction); higher = more cells survive
NCI-H1944 = tested on: NCI-H1944
Summary of the method: (§1)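 The day after seeding in 1536-well plates, lung cancer cell lines were treated by pin tool with a single drug, or with a fixed anchor-drug dose together with five library-drug doses (not always all listed) in √10 steps. After 5 days, a combined fix-and-stain solution (final 0.05% Triton X-100, 1% formaldehyde, 1 ug/ml Hoechst) was added. Nuclei counted on 4× images gave relative viability as treated counts over vehicle counts, reported as the median of duplicate plates.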

HOP-62 = tested on: HOP-62
Summary of the method: as §1

A-427 = tested on: A-427
Summary of the method: as §1

PC-3 [JPC-3] = tested on: PC-3 [JPC-3]
Summary of the method: as §1

SK-MES-1 = tested on: SK-MES-1
Summary of the method: as §1

NCI-H3122 = tested on: NCI-H3122
Summary of the method: as §1

NCI-H596 = tested on: NCI-H596
Summary of the method: as §1

NCI-H1993 = tested on: NCI-H1993
Summary of the method: as §1

NCI-H2009 = tested on: NCI-H2009
Summary of the method: as §1

NCI-H2170 = tested on: NCI-H2170
Summary of the method: as §1

NCI-H322M = tested on: NCI-H322M
Summary of the method: as §1

LXF-289 = tested on: LXF-289
Summary of the method: as §1

ABC-1 = tested on: ABC-1
Summary of the method: as §1

LK-2 = tested on: LK-2
Summary of the method: as §1

HARA = tested on: HARA
Summary of the method: as §1

NCI-H2228 = tested on: NCI-H2228
Summary of the method: as §1

NCI-H1792 = tested on: NCI-H1792
Summary of the method: as §1

EMC-BAC-2 = tested on: EMC-BAC-2
Summary of the method: as §1

SW 1573 = tested on: SW 1573
Summary of the method: as §1

NCI-H727 = tested on: NCI-H727
Summary of the method: as §1

## Nc1ccn([C@@H]2O[C@H](CO)[C@@H](O)[C@@H]2O)c(=O)n1 [Cytarabine] + Cc1nc(NC(=O)N2CCC[C@H]2C(N)=O)sc1-c1ccnc(C(C)(C)C(F)(F)F)c1 [Alpelisib] (partner 2 µM)
NCI-H1944; first compound 0.005 µM
  relative viability: 0.563
NCI-H1944; first compound 0.01581 µM
  relative viability: 0.361
NCI-H1944; first compound 0.05 µM
  relative viability: 0.364
NCI-H1944; first compound 0.1581 µM
  relative viability: 0.183
NCI-H1944; first compound 0.5 µM
  relative viability: 0.144
HOP-62; first compound 0.005 µM
  relative viability: 0.793
HOP-62; first compound 0.01581 µM
  relative viability: 0.394
HOP-62; first compound 0.05 µM
  relative viability: 0.348
HOP-62; first compound 0.1581 µM
  relative viability: 0.0724
HOP-62; first compound 0.5 µM
  relative viability: 0.102
A-427; first compound 0.005 µM
  relative viability: 0.823
A-427; first compound 0.01581 µM
  relative viability: 0.518
A-427; first compound 0.05 µM
  relative viability: 0.226
A-427; first compound 0.1581 µM
  relative viability: 0.155
A-427; first compound 0.5 µM
  relative viability: 0.14
PC-3 [JPC-3]; first compound 0.005 µM
  relative viability: 0.95
PC-3 [JPC-3]; first compound 0.01581 µM
  relative viability: 0.926
PC-3 [JPC-3]; first compound 0.05 µM
  relative viability: 0.927
PC-3 [JPC-3]; first compound 0.1581 µM
  relative viability: 0.634
PC-3 [JPC-3]; first compound 0.5 µM
  relative viability: 0.65
SK-MES-1; first compound 0.005 µM
  relative viability: 0.702
SK-MES-1; first compound 0.01581 µM
  relative viability: 0.688
SK-MES-1; first compound 0.05 µM
  relative viability: 0.393
SK-MES-1; first compound 0.1581 µM
  relative viability: 0.243
SK-MES-1; first compound 0.5 µM
  relative viability: 0.21
NCI-H3122; first compound 0.005 µM
  relative viability: 0.673
NCI-H3122; first compound 0.01581 µM
  relative viability: 0.699
NCI-H3122; first compound 0.05 µM
  relative viability: 0.772
NCI-H3122; first compound 0.1581 µM
  relative viability: 0.464
NCI-H3122; first compound 0.5 µM
  relative viability: 0.424
NCI-H596; first compound 0.005 µM
  relative viability: 0.5
NCI-H596; first compound 0.01581 µM
  relative viability: 0.567
NCI-H596; first compound 0.05 µM
  relative viability: 0.433
NCI-H596; first compound 0.1581 µM
  relative viability: 0.418
NCI-H596; first compound 0.5 µM
  relative viability: 0.315
NCI-H1993; first compound 0.005 µM
  relative viability: 0.691
NCI-H1993; first compound 0.01581 µM
  relative viability: 0.636
NCI-H1993; first compound 0.05 µM
  relative viability: 0.642
NCI-H1993; first compound 0.1581 µM
  relative viability: 0.501
NCI-H1993; first compound 0.5 µM
  relative viability: 0.517
NCI-H2009; first compound 0.005 µM
  relative viability: 1.14
NCI-H2009; first compound 0.01581 µM
  relative viability: 1.13
NCI-H2009; first compound 0.05 µM
  relative viability: 1.26
NCI-H2009; first compound 0.1581 µM
  relative viability: 0.937
NCI-H2009; first compound 0.5 µM
  relative viability: 0.473
NCI-H2170; first compound 0.01581 µM
  relative viability: 0.606
NCI-H2170; first compound 0.05 µM
  relative viability: 0.562
NCI-H2170; first compound 0.1581 µM
  relative viability: 0.389
NCI-H2170; first compound 0.5 µM
  relative viability: 0.314
NCI-H322M; first compound 0.005 µM
  relative viability: 0.68
NCI-H322M; first compound 0.01581 µM
  relative viability: 0.607
NCI-H322M; first compound 0.05 µM
  relative viability: 0.529
NCI-H322M; first compound 0.1581 µM
  relative viability: 0.283
NCI-H322M; first compound 0.5 µM
  relative viability: 0.291
LXF-289; first compound 0.005 µM
  relative viability: 1.02
LXF-289; first compound 0.01581 µM
  relative viability: 1.05
LXF-289; first compound 0.05 µM
  relative viability: 0.764
LXF-289; first compound 0.1581 µM
  relative viability: 0.356
LXF-289; first compound 0.5 µM
  relative viability: 0.268
ABC-1; first compound 0.005 µM
  relative viability: 1.02
ABC-1; first compound 0.01581 µM
  relative viability: 1.4
ABC-1; first compound 0.05 µM
  relative viability: 1.09
ABC-1; first compound 0.1581 µM
  relative viability: 0.738
ABC-1; first compound 0.5 µM
  relative viability: 0.55
LK-2; first compound 0.005 µM
  relative viability: 0.641
LK-2; first compound 0.01581 µM
  relative viability: 0.716
LK-2; first compound 0.05 µM
  relative viability: 0.381
LK-2; first compound 0.1581 µM
  relative viability: 0.276
LK-2; first compound 0.5 µM
  relative viability: 0.245
HARA; first compound 0.005 µM
  relative viability: 0.598
HARA; first compound 0.01581 µM
  relative viability: 0.376
HARA; first compound 0.05 µM
  relative viability: 0.416
HARA; first compound 0.1581 µM
  relative viability: 0.167
HARA; first compound 0.5 µM
  relative viability: 0.143
NCI-H2228; first compound 0.005 µM
  relative viability: 0.403
NCI-H2228; first compound 0.01581 µM
  relative viability: 0.201
NCI-H2228; first compound 0.05 µM
  relative viability: 0.251
NCI-H2228; first compound 0.1581 µM
  relative viability: 0.207
NCI-H2228; first compound 0.5 µM
  relative viability: 0.164
NCI-H1792; first compound 0.005 µM
  relative viability: 0.553
NCI-H1792; first compound 0.01581 µM
  relative viability: 0.644
NCI-H1792; first compound 0.05 µM
  relative viability: 0.659
NCI-H1792; first compound 0.1581 µM
  relative viability: 0.387
NCI-H1792; first compound 0.5 µM
  relative viability: 0.343
EMC-BAC-2; first compound 0.005 µM
  relative viability: 0.64
EMC-BAC-2; first compound 0.01581 µM
  relative viability: 0.658
EMC-BAC-2; first compound 0.05 µM
  relative viability: 0.598
EMC-BAC-2; first compound 0.1581 µM
  relative viability: 0.193
EMC-BAC-2; first compound 0.5 µM
  relative viability: 0.182
SW 1573; first compound 0.005 µM
  relative viability: 0.793
SW 1573; first compound 0.01581 µM
  relative viability: 0.602
SW 1573; first compound 0.05 µM
  relative viability: 0.7
SW 1573; first compound 0.1581 µM
  relative viability: 0.219
SW 1573; first compound 0.5 µM
  relative viability: 0.182
NCI-H727; first compound 0.005 µM
  relative viability: 0.461
NCI-H727; first compound 0.01581 µM
  relative viability: 0.505
NCI-H727; first compound 0.05 µM
  relative viability: 0.388
NCI-H727; first compound 0.1581 µM
  relative viability: 0.258
NCI-H727; first compound 0.5 µM
  relative viability: 0.159
